{"source": "paper PMC12592420", "about": "“A mismatch in enzyme-redox partnerships underlies divergent cytochrome P450 activities between human hepatocytes and microsomes” (Communications Biology, 2025)", "key": {"human hepatocytes (HH) [1]": {"tested_on": "human hepatocytes (HH)", "assay": "Savolitinib metabolite (M2, M4) formation in human hepatocytes, with and without CYP inhibitors", "assay_type": "in vitro ADME", "settings": "savolitinib 5 µM, 1 h, only peak above this level"}, "[2]": {"assay": "Metabolism of savolitinib in lysed hepatocytes + NADPH", "assay_type": "in vitro ADME, human", "settings": "savolitinib 1 µM, HH lysate + NADPH", "description": "HH in Leibovitz buffer were centrifuged at 11,250 × g for 5 min to pellet the cells. Taking care not to disturb the pellet, all the media was removed using a pipette. Ice-cold water was added and the mixture vortex-mixed to resuspend the cells and stored at −80 °C for 5 min followed by sonication for 10 min to lyse the cells. The resuspended lysate final volume was equivalent to a final cell concentration of 1 million cells/mL (the same concentration used for intact cells experiments) in […] phosphate buffer pH 7.4 and NADPH (final 1 mM). After pre-incubating for 5 min at 37 °C, the reaction (metabolism of savolitinib) in the lysate was initiated by adding savolitinib (final 1 µM). […] Authentic standards (M2 and M4) were spiked into hepatocyte lysate and used to construct standard curves. The acetonitrile/hepatocyte lysate mixtures were centrifuged at 3000 × g for 10 min and 50 µl of the supernatant was mixed with 300 µl of water and 3 µL was injected into the mass spectrometer for analysis by multiple reaction monitoring."}, "human hepatocytes (HH) [3]": {"tested_on": "human hepatocytes (HH)", "assay": "Savolitinib metabolite (M2, M4) formation in human hepatocytes, with and without CYP inhibitors", "assay_type": "in vitro ADME", "settings": "savolitinib 1 µM, intact HH", "description": "[…]120millioncells/[…] […] Authentic standards (M2 and M4) were spiked into hepatocytes (at 1 million cells/mL) and used to construct standard curves. Control marker reactions (final 1 μM for each compound) specific for CYP1A2 (phenacetin to form paracetamol), CYP2C19 (S-mephenytoin to form 4-OH mephenytoin) and CYP2D6 (dextromethorphan to form dextrorphan) were incubated in the presence and absence of the specific inhibitors to confirm the expected enzyme inhibition. […] After a pre-incubation at 37 °C for 5 min, the reaction was started by adding the test compound. […] After centrifugation at 3000 × g for 10 min, 200 μL of the supernatant was mixed with 400 μL of water before analysis for metabolites."}, "[4]": {"assay": "Incubations in HLM + NADPH from the same donor pool as S9", "assay_type": "in vitro ADME, human", "settings": "HLM (same donors as S9) + NADPH, savolitinib 1 µM, 1 h (Fig. 6aii)", "text": "Liver S9 (lot 1810001, pool of 50, Xenotech) and HLM (pool of 50, lot 1810003, Xenotech) from the same pool of donors were purchased from Xenotech."}, "[5]": {"assay": "Incubations in human liver S9 + NADPH (same donor pool as HLM)", "assay_type": "in vitro ADME", "settings": "S9 + NADPH, savolitinib 1 µM, 1 h (Fig. 6aii)"}, "[6]": {"assay": "Savolitinib metabolite (M2, M4) formation in NADPH-HLM (with BSA or cytosol where stated)", "assay_type": "in vitro ADME, human", "design": "[M4] / M2 average / M4 average: unit not given here", "settings": "for M2 average: average of duplicate (Suppl. Fig. 1); for [M2]: savolitinib 1 µM"}, "[7]": {"settings": "healthy volunteers, N-demethylation to M2; cited from earlier work"}, "in vitro [8]": {"assay": "in vitro", "settings": "human, hepatocytes"}, "in vitro [9]": {"assay": "in vitro", "settings": "human, microsomes, pH 7.4", "description": "(§1) Calculation and scaling of CLint,u was done using the equation below and 45 mg of microsomal protein per gram of liver. HLMCLint,u=ln2/x1/t1/2(min)xmLincubation/mgmicrosomalproteinx45mgmicrosomalprotein/gliverx21gliver/kg/Fuinc"}, "in vitro [10]": {"assay": "in vitro", "settings": "human, microsomes, pH 7.4, NADPH_HLM_scaled_CLint,u", "description": "as §1"}, "physchem": {"assay": "physchem", "settings": "pH 7.4"}, "[11]": {"assay": "Intrinsic permeability in Caco-2 cells with efflux inhibited", "settings": "human, Caco-2"}, "[12]": {"assay": "Free fraction in HLM incubation, equilibrium dialysis", "assay_type": "in vitro ADME, human", "settings": "fraction unbound, measured or estimated by in silico models of Fuinc"}, "rat hepatocytes": {"tested_on": "rat hepatocytes", "assay": "Free fraction in rat hepatocytes as surrogate for HH, equilibrium dialysis", "assay_type": "in vitro ADME", "settings": "fraction unbound, measured or estimated by in silico models of Fuinc"}}, "note": "“And” between values parts separate entries of the source, which are not always exact repeats. Equal values may be shown once."}
{"smiles": "C[C@@H](c1ccc2nccn2c1)n1nnc2ncc(-c3cn[nH]c3)nc21", "note": "[Compound M2]", "values": [{"measurement": "metabolite peak by UV detection", "setting": "human hepatocytes (HH) [1]", "result": "greater than 1%"}, {"measurement": "[M2]", "setting": "[2]; 0 min (Fig. 6cii)", "result": "0.25 nM and 0.2 nM"}, {"measurement": "[M2]", "setting": "[2]; 5 min (Fig. 6cii)", "result": "1.7 nM and 2.55 nM and 1.8 nM"}, {"measurement": "[M2]", "setting": "[2]; 10 min (Fig. 6cii)", "result": "3.5 nM and 5.15 nM and 3.8 nM"}, {"measurement": "[M2]", "setting": "[2]; 20 min (Fig. 6cii)", "result": "6.7 nM and 10.4 nM and 7.3 nM"}, {"measurement": "[M2]", "setting": "[2]; 40 min (Fig. 6cii)", "result": "11.35 nM and 17.1 nM and 12.4 nM"}, {"measurement": "[M2]", "setting": "[2]; 60 min (Fig. 6cii)", "result": "15.15 nM and 22.05 nM and 17 nM"}, {"measurement": "[M2]", "setting": "human hepatocytes (HH) [3]; 5 min (Fig. 2a, 6cii)", "result": "1.4 nM and 2.2 nM and 2.25 nM"}, {"measurement": "[M2]", "setting": "human hepatocytes (HH) [3]; 10 min (Fig. 2a, 6cii)", "result": "2.85 nM and 3.9 nM and 4.1 nM"}, {"measurement": "[M2]", "setting": "human hepatocytes (HH) [3]; 20 min (Fig. 2a, 6cii)", "result": "6.15 nM and 6.85 nM and 7.4 nM"}, {"measurement": "[M2]", "setting": "human hepatocytes (HH) [3]; 40 min (Fig. 2a, 6cii)", "result": "12.1 nM and 12.5 nM and 13.35 nM"}, {"measurement": "[M2]", "setting": "human hepatocytes (HH) [3]; 60 min (Fig. 2a, 6cii)", "result": "15.75 nM and 16.75 nM and 16.5 nM"}, {"measurement": "[M2]", "setting": "[4]", "result": "12.05 nM and 12.7 nM and 9.9 nM"}, {"measurement": "[M2]", "setting": "[5]", "result": "6.15 nM and 6.3 nM and 4.1 nM"}, {"measurement": "M2 average", "setting": "[6]; 60min, cytosol 0 mg/mL", "result": "12.95 and 12.75 and 12.25"}, {"measurement": "M2 average", "setting": "[6]; 60min, cytosol 4 mg/mL", "result": "10.25 and 10.45 and 11.2"}, {"measurement": "M2 average", "setting": "[6]; 60min, cytosol 10 mg/mL", "result": "7.45 and 7.9 and 8.9"}, {"measurement": "[M2]", "setting": "[6]; 1 h (Fig. 2e)", "result": "9.4 nM and 16.7 nM and 13.4 nM"}, {"measurement": "[M2]", "setting": "[6]; 60min, cytosol 0 mg/mL, single measurements (Suppl. Fig. 1)", "result": "13.1 and 12.8 and 12.6 and 12.9 and 11.7"}, {"measurement": "[M2]", "setting": "[6]; 60min, cytosol 4 mg/mL, single measurements (Suppl. Fig. 1)", "result": "10.4 and 10.1 and 10.6 and 10.3 and 10.9 and 11.5"}, {"measurement": "[M2]", "setting": "[6]; 60min, cytosol 10 mg/mL, single measurements (Suppl. Fig. 1)", "result": "7.5 and 7.4 and 8 and 7.8 and 8.5 and 9.3"}, {"measurement": "metabolite, share of the dose", "setting": "[7]", "result": "60 % of the dose"}]}
{"smiles": "CC(=O)CC(c1ccccc1)c1c(O)c2ccccc2oc1=O", "note": "(stereo not drawn) [Warfarin]", "values": [{"measurement": "hepatocyte CLint at 1 µM", "setting": "in vitro [8]; both", "result": 2.69, "unit": "µL/min/1e6 cells"}, {"measurement": "CLint scaled at 1 µM", "setting": "in vitro [8]; HH_scaled_CLint,u", "result": 8.57, "unit": "mL/min/kg"}, {"measurement": "CLint scaled at 1 µM", "setting": "in vitro [9]", "result": 2.83, "unit": "mL/min/kg"}, {"measurement": "CLint scaled at 1 µM", "setting": "in vitro [10]", "result": 4.16, "unit": "mL/min/kg"}, {"measurement": "logD", "setting": "physchem", "result": 0.902}, {"measurement": "Papp at 2 h, 10 µM", "setting": "[11]", "result": 60.7, "unit": "×10⁻⁶ cm/s"}, {"measurement": "fu_HLM", "setting": "[12]", "result": 1}, {"measurement": "fu_ratHH", "setting": "rat hepatocytes", "result": 0.791}]}
